Experimental findings from patent US11045519B2, “Arginine-rich polypeptide compositions and methods of using same” (UNM Rainforest Innovations, priority 2017, dated 2021) are described below.

For the assay, the system named is HPV16 PsVs. In words: HPV16 PsV binding to HaCaT cells at 4° C. (L1 immunoblot / immunofluorescence). The assay is classed as cell-based. As for the experimental part: FIG. 4. PolyR treatment of host cells inhibits HPV16 binding to cells. (A) Confluent HaCaT cell monolayers were treated with 1 μM polyR (in CM) for 30 minutes, before adding 100 vge/cell HPV16 PsVs, and incubated at 4° C. for one hour (to promote binding but prevent virus internalization). After washing out of unbound virus, cells were lysed (25 mM Tris pH7.5, 150 mM NaCl, 1% Triton-X100 supplemented with protease inhibitors) and centrifuged at 16,000×g for 10 minutes. Protein concentrations in supernatant were measured using the Bradford method (Bio-Rad Laboratories, Inc., Hercules, Calif.). Samples were boiled in SDS-containing sample buffer, and aliquots containing equal amount of protein ([…] to 200 μg) separated by SDS-polyacrylamide gel electrophoresis (SDS-PAGE), using 10% gel. Proteins were transferred onto polyvinylidene difluoride (PVDF) membranes and subjected to analysis using anti-HPV16 L1 primary antibody (Camvir-1, sc-47699, Santa Cruz Biotechnology, Inc., Dallas, Tex.;1:5000 dilution) for detection of HPV16 major capsid protein, L1. Proteins were visualized by enhanced chemiluminescence (SUPERSIGNAL West Pico Chemiluminescent Substrate, Thermo Fisher Scientific, Inc., Waltham, Mass.) and exposed to film (Phenix Research Products, Candler, N.C.). (B) Immunofluorescence assays were performed essentially as described previously (Surviladze et al., 2012. PLoS Pathogens 8:e1002519). HaCaT cells were grown on coverslips at approximately 50% confluence and treated with 3 μM polyR for 30 minutes at 37° C. before the addition of 1000 vge of HPV16 PsVs per coverslip. Cells were incubated for one hour at 4° C. and washed several times with PBS, before the fixation with 4% paraformaldehyde (PFA). BSA-blocked cells were incubated with rabbit polyclonal HPV16 antibody (antibody was affinity-purified from rabbit anti-HPV VLP antisera). PBS-washed slides were incubated with donkey AF488-conjugated anti-rabbit IgG secondary antibody; phalloidin-rhodamine (Cytoskeleton, Inc., Denver, Colo.) was used for actin staining. After extensive washing with PBS, cells were mounted in Gold Antifade and immunofluorescent (IF) images were captured by confocal photo-microscopy.
(A) HPV16 PsVs were bound to HaCaT cells (one hour at 4° C.), before the addition of […]. After a one-hour incubation at 4° C., unbound virus was washed out, cells were lysed and analyzed for the content of HPV L1 protein. (B) HaCaT cells were exposed to HPV 16 PsV at 4° C. in the absence of polyR, simultaneously with polyR (0 h), or one hour after polyR treatment (+1 h). After extensive washing with PBS, cells were lysed and analyzed for the content of HPV16 L1 protein.
FIG. 16. PrS pretreated cells binding of HPV16. Confluent HaCaT cell monolayers were treated with 1 μM PrS (in CM) before the addition of 200 vge/cell HPV16 PsVs and incubated at 4° C. for one hour (conditions to prevent virus internalization). After washing out of unbound virus, cells were lysed (25 mM Tris pH7.5, 150 mM NaCl, 1% Triton-X100 supplemented with protease inhibitors) and centrifuged at 16,000×g for 10 minutes. Protein concentrations in supernatant were measured using the Bradford method (Bio-Rad Laboratories, Inc., Hercules, Calif.). Samples were boiled in SDS-containing sample buffer, and aliquots containing equal amount of protein (˜50 μg to 200 μg) separated by SDS-polyacrylamide gel electrophoresis (SDS-PAGE) using 10% gel. […]

For the substance poly-L-arginine [polyR], where the note is “1 μM, 30 min pre-treatment, 100 vge/cell, 4° C. 1 h”, the “HPV16 binding to pre-treated cells (L1 immunoblot)” value was “almost completely blocked HPV16 binding”. Also, for the setting “3 μM, 30 min pre-treatment, 4° C. 1 h”, the “HPV16 bound to cell surface (confocal microscopy)” value was “dramatically reduced detection of HPV bound to the cell surface”. Besides, the “reduction of HPV binding to cells” value (polyR and HPV added simultaneously, 4° C.) is given as “≈ 50%”.
